Target: T1, Nav1.7 (Homo sapiens, UniProt Q15858)
T1 construct: gene SCN9A; human Nav1.7 channels stably transfected in Expi293F cells
Assay: automated whole-cell patch clamp (Qube-384); inverse apparent IC50 vs holding potential fit with four-state binding model
Format: cell-based

T1 sequence (Q15858 whole entry): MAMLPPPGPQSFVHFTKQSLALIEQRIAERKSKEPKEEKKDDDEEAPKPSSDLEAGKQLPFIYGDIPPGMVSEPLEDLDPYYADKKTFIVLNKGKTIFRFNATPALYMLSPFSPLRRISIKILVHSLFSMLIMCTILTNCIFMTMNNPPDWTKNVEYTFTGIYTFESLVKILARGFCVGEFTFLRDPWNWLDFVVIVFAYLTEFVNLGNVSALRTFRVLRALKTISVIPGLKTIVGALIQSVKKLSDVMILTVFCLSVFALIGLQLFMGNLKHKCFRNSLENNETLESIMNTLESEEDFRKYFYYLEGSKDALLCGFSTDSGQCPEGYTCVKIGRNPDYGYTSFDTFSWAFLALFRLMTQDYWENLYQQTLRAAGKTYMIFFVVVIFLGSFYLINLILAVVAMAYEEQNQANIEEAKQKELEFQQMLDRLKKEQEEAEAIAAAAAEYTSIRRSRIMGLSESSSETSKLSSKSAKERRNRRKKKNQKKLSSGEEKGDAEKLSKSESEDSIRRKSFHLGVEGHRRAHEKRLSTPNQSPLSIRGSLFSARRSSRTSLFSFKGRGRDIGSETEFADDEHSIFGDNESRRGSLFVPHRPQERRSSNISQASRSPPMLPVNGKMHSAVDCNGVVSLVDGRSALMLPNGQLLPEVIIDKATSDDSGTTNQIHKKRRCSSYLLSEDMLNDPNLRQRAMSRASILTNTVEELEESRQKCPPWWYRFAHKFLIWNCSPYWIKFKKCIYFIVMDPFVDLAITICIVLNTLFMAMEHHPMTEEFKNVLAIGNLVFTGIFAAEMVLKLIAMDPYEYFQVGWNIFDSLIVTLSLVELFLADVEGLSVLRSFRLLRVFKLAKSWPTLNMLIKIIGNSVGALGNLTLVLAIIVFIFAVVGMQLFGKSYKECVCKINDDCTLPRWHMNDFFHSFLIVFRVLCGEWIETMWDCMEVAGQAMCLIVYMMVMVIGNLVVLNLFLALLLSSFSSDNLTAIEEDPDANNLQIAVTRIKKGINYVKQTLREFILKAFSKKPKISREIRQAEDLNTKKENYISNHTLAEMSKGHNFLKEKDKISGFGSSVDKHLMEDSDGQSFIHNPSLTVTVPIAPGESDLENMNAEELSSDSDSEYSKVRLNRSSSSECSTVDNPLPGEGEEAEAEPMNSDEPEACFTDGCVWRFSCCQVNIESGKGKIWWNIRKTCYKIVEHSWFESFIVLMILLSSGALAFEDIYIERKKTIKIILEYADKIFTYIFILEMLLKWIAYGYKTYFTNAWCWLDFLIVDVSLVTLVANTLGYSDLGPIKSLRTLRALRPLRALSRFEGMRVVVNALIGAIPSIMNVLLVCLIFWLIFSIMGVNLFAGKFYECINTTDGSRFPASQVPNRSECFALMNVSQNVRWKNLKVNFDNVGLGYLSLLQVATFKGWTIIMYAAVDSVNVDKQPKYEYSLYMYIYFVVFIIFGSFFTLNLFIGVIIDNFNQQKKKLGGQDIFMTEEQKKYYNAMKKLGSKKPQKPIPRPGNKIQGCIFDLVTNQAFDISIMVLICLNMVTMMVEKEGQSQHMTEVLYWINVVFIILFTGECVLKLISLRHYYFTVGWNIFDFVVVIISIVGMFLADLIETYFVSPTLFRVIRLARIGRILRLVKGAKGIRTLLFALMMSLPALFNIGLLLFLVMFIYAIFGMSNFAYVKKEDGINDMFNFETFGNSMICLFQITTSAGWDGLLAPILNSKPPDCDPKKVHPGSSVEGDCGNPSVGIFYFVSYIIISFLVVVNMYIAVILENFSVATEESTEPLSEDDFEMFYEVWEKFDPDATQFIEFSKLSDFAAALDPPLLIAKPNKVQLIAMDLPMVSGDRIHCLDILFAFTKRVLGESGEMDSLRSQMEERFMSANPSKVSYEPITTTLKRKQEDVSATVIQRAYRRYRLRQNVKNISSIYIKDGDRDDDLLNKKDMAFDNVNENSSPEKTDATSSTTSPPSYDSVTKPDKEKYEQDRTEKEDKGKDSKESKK

With `CCC(C)(C)c1ccc(CC(C)CN2C[C@@H](C)O[C@@H](C)C2)cc1` (stereo partly shown) [AMF, amorolfine] the Ki was 3.6 µM.
